The text below walks through data of publication PMC4079120 (Journal of the American Chemical Society, 2013).

The test has as its system GABA-A receptor. The experiment in a line: block of evoked GABA-A receptor currents in layer […] pyramidal neurons.

What is called EC50 is the concentration that produces a half-maximal response. A low value points to a more potent agent. The molecule `COc1ccc([N+](=O)[O-])c2c1CCN2C(=O)CC[C@H](N)C(=O)O` [MNI-Glu] showed an EC50 of 105 µM.
DEAC450-Glu [compound 7] had an EC50 of approximately 33 µM.
On to RuBi-Glu, for which the EC50 was found to be 7.7 µM.
